What was measured:
[1] = target: T1, PRMT5 (Homo sapiens, UniProt O14744); test: PRMT5 biochemical IC50 assay with SAM as cofactor; conditions: PRMT5, SAM as cofactor; read-out: SAM IC50
T1 construct: purchased Viva (custom protein)

[2] = target: T1, PRMT5; test: PRMT5 biochemical IC50 assay with no cofactor; conditions: PRMT5, no cofactor
Text: Table 1 indicates IC50 values (μM) against PRMT5 for exemplary compounds in the presence of SAM as cofactor, with no cofactor, and with MTA as cofactor, respectively (columns 4-6). […] Ki values can be calculated from the IC50 values as described in the Examples section. As detailed in the Examples section, for the assay performed in the presence of SAM, IC50=Ki×1.5 (Ki=IC50/1.5).

[3] = target: T1, PRMT5; test: PRMT5 biochemical IC50 assay with MTA as cofactor; conditions: PRMT5, MTA as cofactor; read-out: MTA IC50
[4] = system: HAP1 MTAP-intact cell line; test: SDMA in-cell western assay, HAP1 MTAP-intact; format: cell-based; conditions: Homo sapiens, HAP1, SDMA in-cell western, HAP1 MTAP-intact; read-out: MTAP HAP1 intact IC50
Procedure, shortened: (§1)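 Isogenic HAP1 pair: the MTAP-intact line expresses endogenous MTAP, and the deleted line is MTAP-null. Symmetric dimethylarginine was detected by in-cell western and IC50 values derived for each line.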

[5] = system: HAP1 MTAP-deleted cell line; test: SDMA in-cell western assay, HAP1 MTAP-deleted; format: cell-based; conditions: for IC50: Homo sapiens, HAP1, SDMA in-cell western, HAP1 MTAP-deleted; for MTAP intact/deleted ratio: SDMA in-cell western
Procedure, shortened: as §1

[6] = system: HAP1 MTAP-deleted cell line; test: Viability assay, MTAP-deleted cell line; format: cell-based; conditions: Homo sapiens, read-out: HAP1 MTAP deleted viability
Text: Table 1 additionally indicates IC50 values in a viability assay for the MTAP-deleted cell line (column 10), indicating the effect of treatment with compound on cell survival.

[7] = read-out: HAP 1 MTAP deleted IC50
[8] = IC50 ratio HAP1 MTAP-intact / HAP1 MTAP-deleted
[9] = HAP1, viability assay, MTAP-deleted cell line
[10] = read-out: HAP1 MTAP deleted IC50
[11] = HAP1, viability assay, HAP1 MTAP-deleted
[12] = read-out: No Cofactor/ rel IC50
[13] = IC50 ratio HAP1 MTAP-intact vs HAP1 MTAP-deleted
[14] = HAP1, viability, HAP1 MTAP-deleted cell line

T1 sequence (O14744 whole entry): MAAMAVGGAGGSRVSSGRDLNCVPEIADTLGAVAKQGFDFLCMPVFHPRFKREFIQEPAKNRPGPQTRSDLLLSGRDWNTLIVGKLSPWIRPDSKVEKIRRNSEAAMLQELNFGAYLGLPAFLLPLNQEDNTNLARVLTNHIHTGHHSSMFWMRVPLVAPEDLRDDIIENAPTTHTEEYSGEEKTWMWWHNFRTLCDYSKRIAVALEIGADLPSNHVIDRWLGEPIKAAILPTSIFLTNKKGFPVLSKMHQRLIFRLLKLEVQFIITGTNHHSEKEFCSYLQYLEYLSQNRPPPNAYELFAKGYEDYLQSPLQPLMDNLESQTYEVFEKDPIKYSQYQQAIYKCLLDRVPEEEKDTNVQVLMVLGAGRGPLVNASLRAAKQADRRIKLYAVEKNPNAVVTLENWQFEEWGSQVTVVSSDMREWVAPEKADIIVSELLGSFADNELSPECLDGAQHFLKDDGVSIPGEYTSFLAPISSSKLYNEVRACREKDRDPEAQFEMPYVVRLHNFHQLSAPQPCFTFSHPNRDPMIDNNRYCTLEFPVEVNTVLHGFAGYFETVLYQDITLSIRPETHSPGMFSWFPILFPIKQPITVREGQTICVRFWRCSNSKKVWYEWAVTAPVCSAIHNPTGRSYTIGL
T1 sequence (Q9BQA1 whole entry partner): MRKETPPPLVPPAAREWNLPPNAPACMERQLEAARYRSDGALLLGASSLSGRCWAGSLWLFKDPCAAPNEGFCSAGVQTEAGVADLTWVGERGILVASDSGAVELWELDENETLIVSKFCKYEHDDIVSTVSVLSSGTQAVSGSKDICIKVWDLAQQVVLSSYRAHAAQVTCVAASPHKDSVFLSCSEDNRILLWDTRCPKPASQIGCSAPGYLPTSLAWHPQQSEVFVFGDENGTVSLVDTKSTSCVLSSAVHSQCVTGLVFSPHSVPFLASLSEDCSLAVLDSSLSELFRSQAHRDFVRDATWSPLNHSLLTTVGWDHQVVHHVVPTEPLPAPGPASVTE

SMILES	IC50 [1]	IC50 ([2]; read-out: No Cofactor/rel IC50)	IC50 [3]	IC50 [4]	IC50 [5, 7]	MTAP intact/deleted ratio [5, 8]	IC50 [6, 9]	IC50 [5, 10]	IC50 [6, 11]	IC50 ([6]; HAP1, viability IC50, MTAP-deleted cell line)	IC50 [2, 12]	MTAP intact/deleted ratio [5, 13]	IC50 [6, 14]
Cc1cc(NC(=O)C(=O)N2C[C@H](C)CC[C@H]2c2ccc3sc(N)nc3c2)cnc1C (racemic) [Compound 920, 2-[(2R,5S)-2-(2-amino-1,3-benzothiazol-5-yl)-5-methyl-1-piperidyl]-N-(5,6-dimethyl-3-pyridyl)-2-oxo-acetamide]	50 to 500 nM	50 to 500 nM	50 to 500 nM	> 1000 nM	< 100 nM	A (an IC50 ratio greater than or equal to 10 fold)	1000 to 10000 nM	–	–	–	–	–	–
COc1ncc(NC(=O)C(=O)N2C[C@H](C)CC[C@H]2c2ccc3c(c2)CNC3=O)cc1C(N)=O (single isomer, unassigned) [Compound 749, 2-methoxy-5-(2-(5-methyl-2-(1-oxoisoindolin-5-yl)piperidin-1-yl)-2-oxoacetamido)nicotinamide]	50 to 500 nM	50 to 500 nM	< 50 nM	> 1000 nM	–	A (an IC50 ratio greater than or equal to 10 fold)	–	100 to 1000 nM	1000 to 10000 nM	–	–	–	–
C[C@@H]1CC[C@@H](c2ccccc2F)N(C(=O)C(=O)Nc2cncc(C(N)=O)c2)C1 (racemic) [Compound 595, 5-[[2-[(2R,5S)-2-(2-Fluorophenyl)-5-methyl-1-piperidyl]-2-oxo-acetyl]amino]pyridine-3-carboxamide]	50 to 500 nM	50 to 500 nM	50 to 500 nM	> 1000 nM	< 100 nM	A (an IC50 ratio greater than or equal to 10 fold)	–	–	–	1000 to 10000 nM	–	–	–
CNc1ccc([C@H]2CC[C@H](C)CN2C(=O)C(=O)Nc2cnc(N)c(C)c2)cn1 (single isomer, unassigned) [Compound 876]	> 500 nM	> 500 nM	> 500 nM	> 1000 nM	–	B (an IC50 ratio greater than or equal to 3 fold but lower than 10 fold)	–	> 1000 nM	> 10000 nM	–	–	–	–
C[C@@H]1CC[C@@H](c2cncc(-n3cccn3)c2)N(C(=O)C(=O)Nc2cncc(C(N)=O)c2)C1 (racemic) [Compound 226, rac-5-{2-[(2R,5S)-5-Methyl-2-[5-(1H-pyrazol-1-yl)pyridin-3-yl]piperidin-1-yl]-2-oxoacetamido}pyridine-3-carboxamide]	50 to 500 nM	> 500 nM	50 to 500 nM	> 1000 nM	–	C (an IC50 ratio of less than 3 fold)	> 10000 nM	> 1000 nM	–	–	–	–	–
Cc1ncc([C@@H]2CC[C@@H](C)CN2C(=O)C(=O)Nc2cnc(N)c(C)c2)cn1 (racemic) [Compound 107, rac-N-(6-amino-5-methylpyridin-3-yl)-2-((2R,5S)-5-methyl-2-(2-methylpyrimidin-5-yl)piperidin-1-yl)-2-oxoacetamide]	50 to 500 nM	–	50 to 500 nM	> 1000 nM	> 1000 nM	C (an IC50 ratio of less than 3 fold)	> 10000 nM	–	–	–	> 500 nM	–	–
C[C@@H]1CC[C@@H](c2ccc3sc(CCN(C)C)nc3c2)N(C(=O)C(=O)Nc2cnc(N)c(C3CC3)c2)C1 (single isomer, unassigned) [Compound 1218]	< 50 nM	< 50 nM	< 50 nM	< 100 nM	–	–	< 1000 nM	< 100 nM	–	–	–	A (an IC50 ratio greater than or equal to 10 fold)	–
CCN1CCC(c2nc3cc([C@H]4CC[C@H](C)CN4C(=O)C(=O)Nc4cnc(OC)c(C(N)=O)c4)ccc3s2)CC1 [Compound 1164, 5-(2-((2R,5)-2-(2-(1-ethylpiperidin-4-yl)benzo[d]thiazol-5-yl)-5-methylpiperidin-1-yl)-2-oxoacetamido)-2-methoxynicotinamide]	< 50 nM	< 50 nM	< 50 nM	100 to 1000 nM	–	–	< 1000 nM	< 100 nM	–	–	–	A (an IC50 ratio greater than or equal to 10 fold)	–
CCc1cc(NC(=O)C(=O)N2C[C@@H](C)CC[C@@H]2c2ccc3sc(C4(CN(C)C)CC4)nc3c2)cnc1N [Compound 1347, N-(6-amino-5-ethylpyridin-3-yl)-2-((2R,5S)-2-(2-(1-((dimethylamino)methyl)cyclopropyl)benzo[d]thiazol-5-yl)-5-methylpiperidin-1-yl)-2-oxoacetamide]	50 to 500 nM	–	< 50 nM	< 100 nM	< 100 nM	A (an IC50 ratio greater than or equal to 10 fold)	–	–	–	–	< 50 nM	–	< 1000 nM
CCc1cc(NC(=O)C(=O)N2C[C@@H](C)CC[C@@H]2c2ccc3sc([C@H]4C[C@@H]5CN(C)C[C@@H]5C4)nc3c2)cnc1N [Compound 1338, N-(6-amino-5-ethylpyridin-3-yl)-2-((2R,5S)-5-methyl-2-(2-((3aR,5r,6aS)-2-methyloctahydrocyclopenta[c]pyrrol-5-yl)benzo[d]thiazol-5-yl)piperidin-1-yl)-2-oxoacetamide]	< 50 nM	–	< 50 nM	< 100 nM	< 100 nM	A (an IC50 ratio greater than or equal to 10 fold)	–	–	–	–	< 50 nM	–	< 1000 nM
NC(=O)c1cncc(NC(=O)C(=O)N2CCCC3(C2)OC[C@@H]2C[C@@H]23)c1 (mixture of isomers) [Compound 124, rac-5-{2-[(R,5S)-3-Oxaspiro[bicyclo[3.1.0]hexane-2,3′-piperidine]-1′-yl]-2-oxoacetamido}pyridine-3-carboxamide]	> 500 nM	–	50 to 500 nM	> 1000 nM	> 1000 nM	C (an IC50 ratio of less than 3 fold)	> 10000 nM	–	–	–	> 500 nM	–	–
Cc1cc(NC(=O)C(=O)N2CCCC[C@H]2c2ccc3[nH]ncc3c2)cnc1N (single isomer, unassigned) [Compound 518]	50 to 500 nM	50 to 500 nM	< 50 nM	> 1000 nM	–	A (an IC50 ratio greater than or equal to 10 fold)	< 1000 nM	< 100 nM	–	–	–	–	–
COc1ncc(NC(=O)C(=O)N2C[C@@H](C)CC[C@@H]2c2cc(Cl)cc(Cl)c2)cc1C(N)=O (single isomer, unassigned) [Compound 945]	50 to 500 nM	50 to 500 nM	< 50 nM	> 1000 nM	< 100 nM	A (an IC50 ratio greater than or equal to 10 fold)	1000 to 10000 nM	–	–	–	–	–	–
COc1ncc(NC(=O)C(=O)N2C[C@@H](C)CC[C@@H]2c2ccc3sc([C@@H]4CCN(C)C[C@H]4C)nc3c2)cc1C(N)=O (racemic) [Compound 1127, 2-methoxy-5-[[2-oxo-2-[rac-(2R,5S)-5-methyl-2-[2-[rac-(3S,4R)-1,3-dimethyl-4-piperidyl]-1,3-benzothiazol-5-yl]-1-piperidyl]acetyl]amino]pyridine-3-carboxamide]	< 50 nM	< 50 nM	< 50 nM	< 100 nM	–	–	< 1000 nM	< 100 nM	–	–	–	A (an IC50 ratio greater than or equal to 10 fold)	–

Reference: patent US11999727B2 (Tango Therapeutics, Inc., priority 2020, dated 2024)
